Structures are written as SMILES.

One may read the IC50 as the concentration needed to halve the response being measured. The low end stands for higher potency, the high end for lower potency.

Sequence of PIK3CA (human) (P42336 whole entry, looked up): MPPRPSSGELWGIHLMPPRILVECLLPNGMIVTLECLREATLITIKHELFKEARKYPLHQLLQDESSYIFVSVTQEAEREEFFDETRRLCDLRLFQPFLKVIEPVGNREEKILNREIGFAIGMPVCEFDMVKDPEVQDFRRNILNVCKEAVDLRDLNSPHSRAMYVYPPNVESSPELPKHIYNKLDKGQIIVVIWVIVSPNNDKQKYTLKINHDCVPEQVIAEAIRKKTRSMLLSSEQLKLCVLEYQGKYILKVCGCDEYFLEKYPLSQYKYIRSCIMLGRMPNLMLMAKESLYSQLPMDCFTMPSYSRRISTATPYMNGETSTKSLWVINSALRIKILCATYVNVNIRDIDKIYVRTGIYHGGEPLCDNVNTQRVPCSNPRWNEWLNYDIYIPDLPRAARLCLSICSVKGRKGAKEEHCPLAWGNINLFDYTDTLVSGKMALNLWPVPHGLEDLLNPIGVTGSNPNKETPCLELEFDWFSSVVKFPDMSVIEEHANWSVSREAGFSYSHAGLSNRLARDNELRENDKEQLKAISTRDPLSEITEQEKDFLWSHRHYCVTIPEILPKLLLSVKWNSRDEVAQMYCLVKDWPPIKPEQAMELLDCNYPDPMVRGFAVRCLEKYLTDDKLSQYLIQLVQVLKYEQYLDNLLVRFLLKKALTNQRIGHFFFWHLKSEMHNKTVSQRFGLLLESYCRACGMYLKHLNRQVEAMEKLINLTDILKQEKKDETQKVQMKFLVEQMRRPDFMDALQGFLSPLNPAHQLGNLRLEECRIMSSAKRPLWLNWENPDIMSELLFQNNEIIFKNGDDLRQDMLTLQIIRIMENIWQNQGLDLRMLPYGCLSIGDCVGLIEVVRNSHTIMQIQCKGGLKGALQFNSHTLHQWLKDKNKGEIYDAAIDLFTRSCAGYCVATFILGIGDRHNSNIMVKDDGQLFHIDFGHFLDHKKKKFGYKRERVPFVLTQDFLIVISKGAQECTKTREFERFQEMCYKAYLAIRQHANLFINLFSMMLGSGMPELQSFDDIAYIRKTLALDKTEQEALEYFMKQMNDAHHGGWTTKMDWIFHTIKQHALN

One assay has as its target PIK3CA (human) (UniProt P42336). The assay can be described thus: Cell-Based Assay. The settings on record: mda-mb-361.
In turn, `Nc1nc2cc(-c3ccc4ncc(N5CCN(C(=O)C6(N)CC6)CC5)cc4n3)ccc2o1` showed an IC50 of 100 to 1000 nM.

On to `C[C@@H]1CN(C2CN(c3cnc4ccc(-c5ccc6oc(N)nc6c5)nc4c3)C2)CCN1`, for which the IC50 fell in the range of 100 to 1000 nM.

In turn, `Nc1nc2cc(-c3ccc4ncc(N5CCNC(=O)C5)nc4n3)ccc2o1` displayed an IC50 of 100 to 1000 nM.

In the case of `CC1(C)CN(C2CN(c3cnc4ccc(-c5ccc6oc(N)nc6c5)nc4n3)C2)CCN1`, the IC50 lay within 100 to 1000 nM.

In turn, `C[C@H]1COCCN1c1cnc2ccc(-c3ccc4oc(N)nc4c3)nc2n1` registered an IC50 of 100 to 1000 nM.

Compound `CCN1CCN(C2CN(c3cnc4ccc(-c5ccc6oc(N)nc6c5)nc4c3)C2)CC1` showed an IC50 of 100 to 1000 nM.

Regarding `CC(C)N1CCN(C2CN(c3cnc4ccc(-c5ccc6oc(N)nc6c5)nc4c3)C2)CC1`, the IC50 fell in the range of 100 to 1000 nM.

`Nc1nc2cc(-c3ccc4ncc(N5C6CCC5COC6)nc4n3)ccc2o1` yielded an IC50 of 100 to 1000 nM.

Regarding `NCC(=O)N1CCN(c2cnc3ccc(-c4ccc5oc(N)nc5c4)nc3n2)CC1`, the IC50 was > 10000 nM.

Turning to `CN1CCN(C2CN(c3cnc4ccc(-c5ccc6oc(N)nc6c5)nc4c3)C2)CC1`, the IC50 was in the range of 100 to 1000 nM.

As to `C[C@H]1CN(C2CN(c3cnc4ccc(-c5ccc6oc(N)nc6c5)nc4c3)C2)CCN1`, the IC50 lay within 100 to 1000 nM.

As for `C[C@H]1COCCN1C1CN(c2cnc3ccc(-c4ccc5oc(N)nc5c4)nc3n2)C1`, the IC50 was > 10000 nM.

On to `C[C@@H]1CN(C2CN(c3cnc4ccc(-c5ccc6oc(N)nc6c5)nc4c3)C2)CCN1C`, for which the IC50 lay in the range of 100 to 1000 nM.

Compound `C[C@@H]1COCCN1c1cnc2ccc(-c3ccc4oc(N)nc4c3)nc2n1` yielded an IC50 of 100 to 1000 nM.

Regarding `Nc1nc2cc(-c3ccc4ncc(N5CC(N6CCN(CC7CC7)CC6)C5)cc4n3)ccc2o1`, the IC50 lay in the range of 100 to 1000 nM.

In turn, `Nc1nc2cc(-c3ccc4ncc(N5CCC(O)CC5)nc4n3)ccc2o1` yielded an IC50 of 100 to 1000 nM.

Regarding `Nc1nc2cc(-c3ccc4ncc(N5CC(N6CCNCC6)C5)nc4n3)ccc2o1`, the IC50 was > 10000 nM.

In the case of `CCOC(=O)N1CCN(c2cnc3ccc(-c4ccc5oc(N)nc5c4)nc3n2)CC1`, the IC50 is 100 to 1000 nM.

In turn, `CCOC(=O)N1CCN(c2cnc3ccc(-c4ccc5oc(N)nc5c4)nc3c2)CC1` gave an IC50 of 100 to 1000 nM.

As for `C[C@H]1CN(C2CN(c3cnc4ccc(-c5ccc6oc(N)nc6c5)nc4c3)C2)CCN1C`, the IC50 lay within 100 to 1000 nM.

`CC(C)(N)C(=O)N1CCN(c2cnc3ccc(-c4ccc5oc(N)nc5c4)nc3c2)CC1` showed an IC50 of 100 to 1000 nM.

`CCOC(=O)N1CC=C(c2cnc3ccc(-c4ccc5oc(N)nc5c4)nc3n2)CC1` returned an IC50 of 100 to 1000 nM.

With `CN1CCN(C2CN(c3cnc4ccc(-c5ccc6oc(N)nc6c5)nc4c3)C2)CC1=O`, the IC50 was in the range of 100 to 1000 nM.

`CC1(C)CN(C2CN(c3cnc4ccc(-c5ccc6oc(N)nc6c5)nc4c3)C2)CCN1` gave a half-inhibitory concentration (IC50) of 100 to 1000 nM.

For the compound `Nc1nc2cc(-c3ccc4ncc(N5CC(N6CCN(CCO)CC6)C5)cc4n3)ccc2o1`, the IC50 lay in the range of 100 to 1000 nM.

Still in this assay, the particulars now being: pc3.
For the compound `Nc1nc2cc(-c3ccc4ncc(C(=O)N5CC[C@H](n6cccn6)C5)n4c3)ccc2o1`, the IC50 was in the range of 100 to 1000 nM.

On to `CN1CCC(N(C)C(=O)c2cnc3ccc(-c4ccc5oc(N)nc5c4)cn23)CC1`, for which the IC50 lay in the range of 100 to 1000 nM.

The compound `COc1ncc(-c2ccc3ncn(C4CCN(C)CC4)c(=O)c3c2)cc1NS(=O)(=O)c1ccccc1` showed an IC50 of 100 to 1000 nM.

Consider `O=C(c1cnc2ccc(-c3cnc(Cl)c(NS(=O)(=O)c4cccc(F)c4)c3)cn12)N1CCOCC1`, for which the IC50 fell in the range of 100 to 1000 nM.

`Nc1nc2cc(-c3ccc4ncc(C(=O)N5CC(F)(F)C5)n4c3)ccc2o1`: the half-inhibitory concentration (IC50) was in the range of 100 to 1000 nM.

Turning to `COc1ncc(-c2ccc3ncn(C4CCN(C(C)C)CC4)c(=O)c3c2)cc1NS(=O)(=O)c1ccccc1`, the IC50 fell in the range of 100 to 1000 nM.

`COc1ncc(-c2ccc3ncc(C(=O)N4CCOCC4)n3c2)cc1NS(=O)(=O)c1cccnc1` registered an IC50 of 100 to 1000 nM.

Take `CC(=O)Nc1cn2cc(-c3ccc4oc(N)nc4c3)ccc2n1`: the IC50 was < 100 nM.

Regarding `O=C(c1cnc2ccc(-c3cnc(Cl)c(NS(=O)(=O)c4ccc(F)cc4)c3)cn12)N1CCOCC1`, the IC50 was 100 to 1000 nM.

On to `COC1CN(C(=O)c2cnc3ccc(-c4ccc5oc(N)nc5c4)cn23)C1`, for which the IC50 was 100 to 1000 nM.

As for `CS(=O)(=O)N1CCN(Cc2cc3nc(-c4ccc5oc(N)nc5c4)nc(N4CCOCC4)c3s2)CC1`, the IC50 is 100 to 1000 nM.

With `Cn1c(=O)n(-c2ccc(C(C)(C)C#N)cc2)c2c3cc(-c4ccc5oc(N)nc5c4)ccc3ncc21`, the IC50 was < 100 nM.

In turn, `C[C@H]1CN(C2CN(C(=O)c3cnc4ccc(-c5ccc6oc(N)nc6c5)cn34)C2)CCN1C` displayed a half-maximal inhibitory concentration (IC50) of 100 to 1000 nM.

The compound `O=C(c1cnc2ccc(-c3cnc(Cl)c(NS(=O)(=O)c4ccccc4)c3)cn12)N1CCOCC1` gave an IC50 of 100 to 1000 nM.

Staying with this assay, now noted: t47d.
`Nc1nc2cc(-c3ccc4ncc(N5CCN(C(=O)[C@H](N)CO)CC5)nc4c3)ccc2o1` displayed an IC50 of 100 to 1000 nM.

Compound `Nc1nc2cc(-c3ccc4ncc(N5CC(C(=O)N6CCOCC6)C5)nc4c3)ccc2o1` yielded an IC50 of 100 to 1000 nM.

The compound `CN1CCN(c2cnc3ccc(-c4ccc5oc(N)nc5c4)cc3n2)CC1=O` had an IC50 of 100 to 1000 nM.

Consider `CC(C)[C@@H](N)C(=O)N1CCN(c2cnc3ccc(-c4ccc5oc(N)nc5c4)cc3n2)CC1`, for which the IC50 lay in the range of 100 to 1000 nM.

Consider `CN1CCN(C2CN(C(=O)c3cnc4ccc(-c5ccc6oc(N)nc6c5)cn34)C2)CC1`, for which the IC50 was in the range of 100 to 1000 nM.

In turn, `CS(=O)(=O)CCN1CCN(c2cnc3ccc(-c4ccc5oc(N)nc5c4)cc3n2)CC1` returned an IC50 of 100 to 1000 nM.

For `CN1CCC(Nc2ncnc3ccc(-c4ccc5oc(N)nc5c4)nc23)CC1`, the IC50 is 100 to 1000 nM.

`Nc1nc2cc(-c3ccc4ncc(N5CCN(C(=O)[C@@H]6CCCN6)CC5)nc4c3)ccc2o1` yielded an IC50 of 100 to 1000 nM.

Turning to `Nc1nc2cc(-c3ccc4ncc(C(=O)Nc5cccnc5)n4c3)ccc2o1`, the IC50 is > 10000 nM.

With `Nc1nc2cc(-c3ccc4ncc(N5CC(C(=O)N6CCN(C7CC7)CC6)C5)nc4c3)ccc2o1`, the IC50 fell in the range of 100 to 1000 nM.

Consider `CC(C)N1CCN(C(=O)C2CN(c3cnc4ccc(-c5ccc6oc(N)nc6c5)cc4n3)C2)CC1`, for which the IC50 is 100 to 1000 nM.

As for `CNC(=O)CN1CCN(c2cnc3ccc(-c4ccc5oc(N)nc5c4)cc3n2)CC1`, the IC50 was 100 to 1000 nM.

As for `CN1CCN(C2CN(c3cnc4ccc(-c5ccc6oc(N)nc6c5)cc4n3)C2)CC1`, the IC50 lay within 100 to 1000 nM.

Turning to `Cc1nccn1C1CN(c2cnc3ccc(-c4ccc5oc(N)nc5c4)cc3n2)C1`, the IC50 lay in the range of 100 to 1000 nM.

Consider `Nc1nc2cc(-c3ccc4ncc(N5CCN(C(=O)C6(N)CCC6)CC5)nc4c3)ccc2o1`, for which the IC50 was in the range of 100 to 1000 nM.

As for `Nc1nc2cc(-c3ccc4ncc(NC5CCOCC5)nc4c3)ccc2o1`, the IC50 is 100 to 1000 nM.

As for `CN1CCN(C(=O)C2CN(c3cnc4ccc(-c5ccc6oc(N)nc6c5)cc4n3)C2)CC1`, the IC50 lay within 100 to 1000 nM.

Regarding `CC(C)(N)C(=O)N1CCN(c2cnc3ccc(-c4ccc5oc(N)nc5c4)cc3n2)CC1`, the IC50 was 100 to 1000 nM.

For the compound `CC(N)C(=O)N1CCN(c2cnc3ccc(-c4ccc5oc(N)nc5c4)cc3n2)CC1` (stereo not drawn), the IC50 lay within 100 to 1000 nM.

In the case of `CC(=O)Nc1cn2cc(-c3ccc4oc(N)nc4c3)ccc2n1`, the IC50 is 100 to 1000 nM.

In turn, `Nc1nc2cc(-c3ccc4ncc(C(=O)N5CC[C@@H](O)C5)n4c3)ccc2o1` had an IC50 of 100 to 1000 nM.

`Nc1nc2cc(-c3ccc4ncc(C(=O)N5CC[C@H](O)C5)n4c3)ccc2o1` showed an IC50 of 100 to 1000 nM.

In turn, `Nc1nc2cc(-c3ccc4ncc(N5CC(N6CCOCC6)C5)nc4c3)ccc2o1` had an IC50 of 100 to 1000 nM.

On to `Nc1nc2cc(-c3ccc4ncc(N5CCN(CCO)CC5)nc4c3)ccc2o1`, for which the IC50 lay within 100 to 1000 nM.

Compound `Nc1nc2cc(-c3ccc4ncc(N5CC(N6CCN(CCO)CC6)C5)nc4c3)ccc2o1` had an IC50 of 100 to 1000 nM.

For `Nc1nc2cc(-c3ccc4ncc(N5CCN(C(=O)CN6CCCC6)CC5)nc4c3)ccc2o1`, the IC50 was in the range of 100 to 1000 nM.

Turning to `Nc1nc2cc(-c3ccc4ncc(N5CCNC(=O)C5)nc4c3)ccc2o1`, the IC50 fell in the range of 100 to 1000 nM.

In turn, `Nc1nc2cc(-c3ccc4ncc(C(=O)NC5CC5)n4c3)ccc2o1` registered an IC50 of 100 to 1000 nM.

As to `Nc1nc2cc(-c3ccc4ncc(C(=O)NCCO)n4c3)ccc2o1`, the IC50 lay within 100 to 1000 nM.

In the case of `CCN(CC)CC(=O)N1CCN(c2cnc3ccc(-c4ccc5oc(N)nc5c4)cc3n2)CC1`, the IC50 fell in the range of 100 to 1000 nM.

As to `C[C@@H]1CN(C2CN(c3cnc4ccc(-c5ccc6oc(N)nc6c5)cc4n3)C2)CCN1`, the IC50 was in the range of 100 to 1000 nM.

In turn, `CN1CCN(CCNc2cnc3ccc(-c4ccc5oc(N)nc5c4)cc3n2)CC1` gave an IC50 of 100 to 1000 nM.

Compound `CN1CC(C(=O)N2CCN(c3cnc4ccc(-c5ccc6oc(N)nc6c5)cc4n3)CC2)C1` yielded an IC50 of 100 to 1000 nM.

For the compound `Nc1nc2cc(-c3ccc4ncc(N5CC(N6CCS(=O)(=O)CC6)C5)nc4c3)ccc2o1`, the IC50 was in the range of 100 to 1000 nM.

The compound `CNC(=O)N1CCN(c2cnc3ccc(-c4ccc5oc(N)nc5c4)cc3n2)CC1` came in with an IC50 of 100 to 1000 nM.

The compound `CS(=O)(=O)N1CCN(C(=O)c2cnc3ccc(-c4ccc5oc(N)nc5c4)cn23)CC1` came in with an IC50 of 100 to 1000 nM.

`Nc1nc2cc(-c3ccc4ncc(N5CCN(CC6CC6)CC5)nc4c3)ccc2o1` yielded an IC50 of 100 to 1000 nM.

Turning to `Cc1cn(-c2cnc3ccc(-c4ccc5oc(N)nc5c4)cc3n2)cn1`, the IC50 is > 10000 nM.

`Nc1nc2cc(-c3ccn4ncc(-c5ccncc5)c4c3)ccc2o1`: the IC50 was in the range of 100 to 1000 nM.

The compound `Nc1nc2cc(-c3ccc4ncnc(OC5CCOCC5)c4c3)ccc2o1` had an IC50 of 100 to 1000 nM.

On to `Nc1nc2cc(-c3ccc4ncc(N5CCOCC5)nc4c3)ccc2s1`, for which the IC50 lay within 100 to 1000 nM.

As for `Nc1nc2cc(-c3ccc4ncc(-c5cnn(CCO)c5)nc4c3)ccc2o1`, the IC50 fell in the range of 100 to 1000 nM.

In turn, `Nc1nc2cc(-c3ccc4ncc(N5CCCC5)nc4c3)ccc2o1` gave an IC50 of 100 to 1000 nM.

As for `C[C@H](N)C(=O)N1CCN(c2cnc3ccc(-c4ccc5oc(N)nc5c4)cc3n2)CC1`, the concentration for half-maximal inhibition (IC50) fell in the range of 100 to 1000 nM.

With `Nc1noc2cc(-c3ccc4nccc(-c5ccncc5)c4c3)ccc12`, the IC50 was in the range of 100 to 1000 nM.

`Nc1nc2cc(-c3ccc4ncc(N5CC(N6CCN(CC7CC7)CC6)C5)nc4c3)ccc2o1`: the IC50 fell in the range of 100 to 1000 nM.

`C[C@@H]1CN(C(=O)C2CN(c3cnc4ccc(-c5ccc6oc(N)nc6c5)cc4n3)C2)CCN1` registered an IC50 of 100 to 1000 nM.

`Nc1nc2cc(-c3ccc4ncc(C(=O)NCCCN5CCCC5)n4c3)ccc2o1` had an IC50 of 100 to 1000 nM.

For `Nc1nc2cc(-c3ccc4ncc(N5CCCCC5)nc4c3)ccc2o1`, the IC50 is > 10000 nM.
